Experimental data from patent publication US9745335B2 (Blirt S.A., priority 2012, dated 2017).

Columns and labels:
[1] = tested on: LLC-PK1 cells; experiment: cytotoxic activity against mammalian cells in tissue culture (MTT); type: cell-based, pig
Protocol: (§1) All media contained 100 μg/ml of penicillin G and streptomycin. 24-wells microplates containing appropriate medium were inoculated with the cells in amount of 1.2×10^4 cells/well and allowed to stand overnight. Next, tested compounds as solution in dimethylsulfoxide (DMSO) were added in volume of 10 μl (serial 2× dilutions). To control well 10 μl of DMSO was added. Microplates with cell suspensions were incubated for 120 h at temperature 37° C. at atmosphere of 95%/5% CO2. After incubation, to all wells 200 μl of solution of 3-(4,5-dimethyltiazole-2-yl)-2,5-diphenylotetrazole bromide (MTT) in PBS (4 mg/ml) was added and plates were further incubated for 4 h at 37° C. Next, to dissolve crystals of formazane 1 ml of DMSO was added and absorption of solutions was measured at the wavelength λ=540 nm (A540), using a microplates reader (Victor^3, Perkin-Wallac). […] From these graphs IC50 values were read, that is concentration of tested compound in the presence at which A540 value is half of A540 value measured in the control sample.

[2] = tested on: HepG2 cells; experiment: as above; type: cell-based, human
Protocol: as §1

[3] = tested on: CCRF-CEM cells; experiment: as above; type: cell-based, human
Protocol: as §1

[4] = tested on: Human erythrocytes; experiment: hemotoxicity determination (hemolytic activity); type: cell-based
How it was run: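 Human erythrocytes (2×10^7/ml in saline) were incubated with serially diluted compound for 30 min at 37 °C and then centrifuged. Released haemoglobin was read at A540 against a 0.1% Triton X-100 full-lysis control. EH50 is the interpolated concentration giving 50% of the control A540.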

[5] = tested on: Trichoderma viride LOCK E159; experiment: antifungal activity in vitro, broader spectrum; type: cell-based
Protocol: (§2) For the determination of antifungal activity in vitro we used method of serial dilution in buffered medium RPMI 1640, pH 7.0, in a 96-wells microplates, according to the standard procedure (National Committee for Clinical Laboratory Standards. Reference method for broth dilution antifungal susceptibility testing of yeast, approved standard, 2nd ed. M27-A2 vol. 22 Wayne, Pa., 2002). The optical density of cells suspension was measured using a microplates reader (Victor^3, Perkin-Elmer) at the wavelength λ=531 nm (A531). On the basis of obtained results the diagrams of relation between A531 values and concentration of examined compound were made.
(§3) Obtained results are presented below in tables 2A and 2B.

[6] = tested on: Candida albicans SC 5314; experiment: antifungal activity in vitro, broader spectrum; type: cell-based
Protocol: as §2, §3

[7] = tested on: Candida lipolytica KKP 322; experiment: antifungal activity in vitro, broader spectrum; type: cell-based
Protocol: as §2, §3

[8] = tested on: Candida stellatoidea CBS 1905; experiment: antifungal activity in vitro, broader spectrum; type: cell-based
Protocol: as §2, §3

[9] = tested on: Candida dubliniensis CBS 7987; experiment: antifungal activity in vitro, broader spectrum; type: cell-based
Protocol: as §2, §3

[10] = tested on: Candida quilliermondii DSM 11947; experiment: antifungal activity in vitro, broader spectrum; type: cell-based
Protocol: as §2, §3

[11] = tested on: Candida arborea KKP 319; experiment: antifungal activity in vitro, broader spectrum; type: cell-based
Protocol: as §2, §3

[12] = tested on: Candida pseudotropicalis KKP 324; experiment: antifungal activity in vitro, broader spectrum; type: cell-based
Protocol: as §2, §3

[13] = tested on: Candida parapsilosis DSM 5784; experiment: antifungal activity in vitro, broader spectrum; type: cell-based
Protocol: as §2, §3

[14] = tested on: Aspergillus niger LOCK E201; experiment: antifungal activity in vitro, broader spectrum; type: cell-based
Protocol: as §2, §3

[15] = tested on: Candida tropicalis KKP 334; experiment: antifungal activity in vitro, serial dilution in RPMI 1640; type: cell-based
How it was run: (§4)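 Optical density at 531 nm served as the growth read-out. Values were plotted against compound concentration after serial dilution of each compound in RPMI 1640 medium buffered to pH 7.0, as in the M27-A2 yeast standard.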

[16] = tested on: Candida glabrata DSM 11226; experiment: as above; type: cell-based
How it was run: as §4

[17] = tested on: Saccharomyces cerevisiae ATCC 9763; experiment: as above; type: cell-based; settings: RPMI 1640, pH 7.0; for Antifungal activity IC50: Saccharomyces cerevisiae ATCC 9763 (first head over MIC and IC50); for Antifungal activity MIC: Saccharomyces cerevisiae ATCC 9763
How it was run: as §4

[18] = tested on: Candida lusitaniae DSM 70102; experiment: as above; type: cell-based
How it was run: as §4

[19] = tested on: Candida krusei DSM 6128; experiment: as above; type: cell-based
How it was run: as §4

[20] = tested on: Candida albicans ATCC 10231; experiment: as above; type: cell-based
How it was run: as §4

[21] = tested on: Candida albicans clinical strain F2; experiment: antifungal activity against MDR fungal strains and parents; type: cell-based; settings: C. albicans F2, fluconazole sensitive, parent strain for F5
Protocol: as §2

[22] = tested on: Candida albicans strain STY31; experiment: as above; type: cell-based; settings: C. albicans STY31, 5674 derivative, deletion of CDR1 and CDR2
Protocol: as §2

[23] = tested on: Candida albicans clinical strain F5 (CaMdr1p); experiment: as above; type: cell-based; settings: C. albicans F5 (CaMdr1p), fluconazole-resistant
Protocol: as §2

[24] = tested on: Candida albicans clinical strain B4 (CaMdr1p); experiment: as above; type: cell-based; settings: C. albicans B4 (CaMdr1p), fluconazole-resistant
Protocol: as §2

[25] = tested on: Candida albicans clinical strain Gu4; experiment: as above; type: cell-based; settings: C. albicans Gu4, fluconazole sensitive, parent strain for Gu5
Protocol: as §2

[26] = tested on: Candida albicans clinical strain B3; experiment: as above; type: cell-based; settings: C. albicans B3, fluconazole sensitive, parent strain for B4
Protocol: as §2

[27] = tested on: Candida albicans strain STY7 (CaCdr1p); experiment: as above; type: cell-based; settings: C. albicans STY7 (CaCdr1p), 5674 derivative, deletion of CDR2
Protocol: as §2

[28] = tested on: Candida albicans clinical strain Gu5 (CaCdr1p, CaCdr2p); experiment: as above; type: cell-based; settings: C. albicans Gu5 (CaCdr1p, CaCdr2p), fluconazole-resistant
Protocol: as §2

[29] = tested on: Candida albicans strain 5674 (CaCdr1p, CaCdr2p); experiment: as above; type: cell-based; settings: C. albicans 5674 (CaCdr1p, CaCdr2p)
Protocol: as §2

Molecule | IC50 (cytotoxic activity) [1] [µg/mL] | IC50 (cytotoxic activity) [2] [µg/mL] | IC50 (cytotoxic activity) [3] [µg/mL] | Hemotoxi EH50 [4] [µg/mL] | Antifungal activity MIC [5] [µg/mL] | Antifungal activity MIC [6] [µg/mL] | Antifungal activity MIC [7] [µg/mL] | Antifungal activity MIC [8] [µg/mL] | Antifungal activity MIC [9] [µg/mL] | Antifungal activity MIC [10] [µg/mL] | Antifungal activity MIC [11] [µg/mL] | Antifungal activity MIC [12] [µg/mL] | Antifungal activity MIC [13] [µg/mL] | Antifungal activity MIC [14] [µg/mL] | Antifungal activity MIC [15] [µg/mL] | Antifungal activity MIC [16] [µg/mL] | Antifungal activity IC50 [17] [µg/mL] | Antifungal activity MIC [17] [µg/mL] | Antifungal activity MIC [18] [µg/mL] | Antifungal activity MIC [19] [µg/mL] | other results
C[C@@H]1[C@H](O)[C@@H](C)/C=C/C=C/C=C/C=C/C=C/C=C/C=C/[C@H](O[C@@H]2O[C@H](C)[C@@H](O)[C@H](NC(=O)[C@H](N)Cc3cccnc3)[C@@H]2O)C[C@@H]2O[C@](O)(C[C@@H](O)C[C@@H](O)[C@H](O)CC[C@@H](O)C[C@@H](O)CC(=O)O[C@H]1C)C[C@H](O)[C@H]2C(=O)O [Compound A36, N-D-β-(pyridin-3-yl)alanylamphotericin B] | >100 | >100 | >100 | >100 | 4 | 1 | 2 | 2 | 1 | 1 | 4 | 1 | 2 | 0.5 | 2 | 4 | 0.53 | 1 | 2 | 4 | Antifungal activity MIC [20]: 2 µg/mL; Antifungal activity MIC [21]: 4 µg/mL; Antifungal activity MIC [22]: 0.25 µg/mL; Antifungal activity MIC [23]: 4 µg/mL; Antifungal activity MIC [24]: 4 µg/mL; Antifungal activity MIC [25]: 1 µg/mL; Antifungal activity MIC [26]: 0.5 µg/mL; Antifungal activity MIC [27]: 0.5 µg/mL; Antifungal activity MIC [28]: 4 µg/mL; Antifungal activity MIC [29]: 0.5 µg/mL
C[C@@H]1[C@H](O)[C@@H](C)/C=C/C=C/C=C/C=C/C=C/C=C/C=C/[C@H](O[C@@H]2O[C@H](C)[C@@H](O)[C@H](NC(=O)[C@H](N)c3ccccc3)[C@@H]2O)C[C@@H]2O[C@](O)(C[C@@H](O)C[C@@H](O)[C@H](O)CC[C@@H](O)C[C@@H](O)CC(=O)O[C@H]1C)C[C@H](O)[C@H]2C(=O)O [Compound A41, N-D-phenylglycylamphotericin B] | >100 | >100 | >100 | >100 | 4 | 1 | 2 | 2 | 1 | 1 | 4 | 2 | 2 | 2 | 4 | 4 | 1.46 | 4 | 2 | 4 | Antifungal activity MIC [20]: 2 µg/mL; Antifungal activity MIC [21]: 2 µg/mL; Antifungal activity MIC [22]: 1 µg/mL; Antifungal activity MIC [23]: 4 µg/mL; Antifungal activity MIC [24]: 1 µg/mL; Antifungal activity MIC [25]: 1 µg/mL; Antifungal activity MIC [26]: 1 µg/mL; Antifungal activity MIC [27]: 1 µg/mL; Antifungal activity MIC [28]: 1 µg/mL; Antifungal activity MIC [29]: 1 µg/mL
N-(4-N,N-diethylaminobenzyl)amphotericin B [Compound A19] | >100 | >100 | >100 | >100 | 4 | 0.5 | 2 | 1 | 0.5 | 2 | 2 | 0.5 | 2 | 1 | 1 | 2 | 0.53 | 1 | 1 | 2 | Antifungal activity MIC [20]: 1 µg/mL; Antifungal activity MIC [21]: 2 µg/mL; Antifungal activity MIC [22]: 1 µg/mL; Antifungal activity MIC [23]: 2 µg/mL; Antifungal activity MIC [24]: 2 µg/mL; Antifungal activity MIC [25]: 1 µg/mL; Antifungal activity MIC [26]: 1 µg/mL; Antifungal activity MIC [27]: 1 µg/mL; Antifungal activity MIC [28]: 1 µg/mL; Antifungal activity MIC [29]: 1 µg/mL
